Test system: lac repressor/operator system controlling plastome-encoded smGFP
Experiment: Chemical induction of plastid GFP transgene expression by spraying a transplastomic tobacco plant with IPTG (Western blot)
Assay type: in vivo, Nicotiana tabacum
Method: FIG. 2: Immunological detection of GFP expression after induction with IPTG. • A) Plastid transformant 557-1 containing the smGFP gene under the control of the 16S-lac3 promoter and the lacl gene (transformation vector plCF1050-1), was analyzed for its GFP content by Western blotting. For the uninduced sample (−), a young leaf of a ca. 7 cm high plant was removed before spraying the plant with a 1 mM IPTG solution. For the induced sample (+), the next youngest leaf was cut four days after spraying. The amount of total soluble protein loaded on the gel is given on the top of the lanes. • B) Lower amounts of protein of the induced sample shown in A were loaded on the gel in order to allow quantification in comparison with the uninduced sample. In addition, protein from further leaves that were cut seven days after spraying was loaded. Leaf a was the next youngest leaf, leaf b an older leaf. Compared with a GFP standard, the amount of GFP in the first lane is in the range of 15 to 20 ng.
Tobacco seeds (Nicotiana tabacum cv. petite havana) were surface sterilized (1 min in 70% ethanol, 10 min in 5% Dimanin C, Bayer, Leverkusenr, Germany), washed 3 times for 10 min in sterile H2O and put on SCN-medium (Dovzhenko et al., 1998). Plants were grown at 25° C. in a 16 h light/8 h dark cycle (0.5-1 W/m^2 Osram L85W/25 Universal-White fluorescent lamps). Protoplast isolation was made according to Dovzhenko et al. (1998). Transformation using polyethyleneglycol (PEG) was performed as described in Koop et al. (1996), and alginate embedding according to Dovzhenko et al. (1998). After one week of culture in liquid medium, cells were transferred to agar-solidified RMOP-medium (Svab et al., 1990) containing 25 μg/ml kanamycin to select for transformants. Green regenerates were retrieved after […] and transferred to individual plates. In order to achieve homoplastomy, the individual lines were subjected to repeated cycles of shoot generation by cutting small leaf pieces which form new regenerates on RMOP-medium with 15 μg/ml kanamycin. Rooting of selected regenerates was done on SCN-medium containing 15 μg/ml spectinomycin. […]
A transplastomic plant generated with plCF10501 was grown on SCN-medium to a height of ca. 7 cm. […] After four and seven days, respectively, the next youngest leaf was cut off and also analyzed. […] Protein quantification was made according to the Bradford method with RotiQuant solution. Proteins were separated on a 15% polyacrylamide gel and transferred to nitrocellulose membrane, and GFP was detected immunologically using the ECL method (primary antibody directed against a recombinant protein corresponding to GFP from A. victoria; Santa Cruz Biotechnology).

CC(C)S[C@@H]1O[C@H](CO)[C@H](O)[C@H](O)[C@H]1O [IPTG, isopropyl-D-thiogalactopyranoside]
amount of GFP in the first lane compared with a GFP standard (FIG. 2B, first lane, Western blot of plastid transformant 557-1 sprayed with 1 mM IPTG): 15 to 20 ng
green fluorescence of leaves (after spraying with 1 mM IPTG, leaves irradiated with ultraviolet/blue light): increase in green fluorescence
amount of GFP in the leaves (plant sprayed with ca. 1 ml of 1 mM IPTG, leaf cut seven days after spraying, Western blot, FIG. 2): a further increase could be observed
increase of the amount of GFP in the leaves (plant sprayed with ca. 1 ml of 1 mM IPTG, next youngest leaf cut four days after spraying vs leaf cut before spraying, Western blot, FIG. 2): about 10 fold
